Patent publication US9169217B2, “Arylalkyl esters of 4-amino-6-(substituted phenyl)-picolinates and 6-amino-2-(substituted phenyl)-pyrimidinecarboxylates and their use as selective herbicides for crops” (Dow AgroSciences LLC, priority 2011, dated 2015)

Experiments:
[1] = tested on: Echinochloa colonum (L.) LINK (junglerice); experiment: Postemergence foliar-applied herbicidal activity in direct seeded rice (Example 16); type: in vivo; conditions: for GR50 / GR80 / GR90: ECHCO, probit analysis; for GR50: 50% growth reduction; for GR80: 80% growth reduction; for GR90: 90% growth reduction; for pest or weed control at 8.75 g/ha: Echinochloa colona, post-emergence, 504 h, rice cropping systems, 8.75 g ae/ha, 21 DAA, may represent multiple trials, read-out: Visual Injury (%) ECHCO
Procedure, shortened: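 Greenhouse plants at 2nd–3rd true leaf stage (10–17 d, ~29/26 °C, 14-h photoperiod) sprayed postemergence with ester forms in acetone–DMSO plus 1.25% crop oil concentrate at 187 L/ha. Visual injury scored 0–100% versus untreated plants after 3 weeks; GR50/GR80 derived by probit analysis.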

[2] = tested on: Leptochloa chinensis (L.) NEES (Chinese sprangletop); experiment: In-water applied herbicidal activity in transplanted paddy rice (Example 17); type: in vivo; conditions: LEFCH, probit analysis; for GR50: 50% growth reduction; for GR80: 80% growth reduction; for GR90: 90% growth reduction
Procedure, shortened: (§1)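 Ester forms of test compounds, in acetone diluted with aqueous Agri-dex (final 1.25% v/v crop oil concentrate), were injected into the flood water of paddy pots holding weeds or rice at the 2nd–3rd leaf stage in mud (pH ~7.3–7.8). Visual injury versus untreated plants was scored 0–100% after 3 weeks in greenhouse (~29/26 °C). GR50/GR80 were derived by probit analysis.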

[3] = tested on: Cyperus rotundus L. (purple nutsedge); experiment: In-water applied herbicidal activity in transplanted paddy rice (Example 17); type: in vivo; conditions: rice cropping systems, 35 g ae/ha, 21 DAA, may represent multiple trials
Procedure, shortened: as §1

melting point [°C]	SMILES	GR50 [1] [g ae/ha]	GR80 [1] [g ae/ha]	GR90 [1] [g ae/ha]	GR50 [2] [g ae/ha]	GR80 [2] [g ae/ha]	GR90 [2] [g ae/ha]	Visual Injury (%) CYPRO [3] [%]	pest or weed control at 8.75 g/ha [1] [%]
–	COC(=O)c1nc(-c2ccc(Cl)c(OC)c2F)c(F)c(N)c1Cl [E, methyl 4-amino-3-chloro-6-(4-chloro-2-fluoro-3-methoxyphenyl)-5-fluoropicolinate, reference compound]	<4.38	14.6	55.6	59.9	99.4	130.0	–	–
90 to 91.5	COc1c(Cl)ccc(-c2cc(N)c(Cl)c(C(=O)OCc3ccccc3)n2)c1F [Compound 39]	–	–	–	–	–	–	80	–
116 to 119	COC(=O)c1nc(-c2ccc(C3CC3)cc2)c(F)c(N)c1Cl [Compound B, methyl 4-amino-3-chloro-6-(4-cyclopropylphenyl)-5-fluoropicolinate]	–	–	–	–	–	–	–	50
–	Nc1c(F)c(-c2ccc(C3CC3)cc2)nc(C(=O)OCc2ccccc2)c1Cl [Compound 42, benzyl 4-amino-3-chloro-6-(4-cyclopropylphenyl)-5-fluoropicolinate]	–	–	–	–	–	–	–	85
–	COC(=O)c1nc(-c2ccc(Cl)c(OC)c2F)cc(N)c1Cl [Compound G, methyl 4-amino-3-chloro-6-(4-chloro-2-fluoro-3-methoxyphenyl)picolinate, reference compound]	–	–	–	–	–	–	47	–
–	COc1c(Cl)ccc(-c2nc(C(=O)OCc3ccccc3)c(Cl)c(N)c2F)c1F [Compound 1, benzyl 4-amino-3-chloro-6-(4-chloro-2-fluoro-3-methoxyphenyl)-5-fluoropicolinate]	2.4	7.8	14.4	50.4	78.6	99.1	–	–
